Common to all, as to format: cell-based
The test system of one assay is MDA-MB-468. Kind of assay: Inhibition of proliferation of cells MDA-MB-468 (CelltiterGlo, 72 h). The method, then: (§1) • (1) Cell plating: first, tumor cells MDA-MB-468 were cultured using a corresponding culture medium, trypsinized, centrifuged, resuspended for counting, adjusted to an appropriate concentration, and then plated on a 384-well plate. • (2) Co-incubation of the compounds and tumor cells: after the cells adhered to the wall, 100 nL of a diluted bioactive substance (test compound) was added to the cell culture plate using ECHO, the final concentration of DMSO in wells of the cell plate was 0.33%, and the incubation was performed in an incubator at 37° C. with 0% CO2 for 72 h. • (3) After the incubation was complete, 30 μL of a CTG reagent (CelltiterGlo kit) was added to each well. The culture was oscillated on a fast oscillator for 2 min, centrifuged at 1,000 rpm for 1 min, and kept away from light at room temperature for 30 min. The chemiluminescence signal value was read using an Envision instrument. • (4) Cell viability detection: IC50 was calculated using GraphPad Prism 8 software, and the IC50 of the compounds was obtained using the following nonlinear fitting formula (see Table 2):
[formula] • Y: inhibition rate: X: log value of compound concentration;
(§2) [formula] • high-reading control wells: cells with addition of 100 nL DMSO; and • low-reading control wells: cell-free wells.

The subject of another assay is NCI-N87. Put plainly: Inhibition of proliferation of cells NCI-N87 (CelltiterGlo, 72 h). The method, then: as §1, with “NCI-N87” for “MDA-MB-468”, “3):” for “2):”
[formula] • Y: inhibition rate, X: log value of compound concentration;
as §2
(In general: ATP-based viability assays read luminescence as a measure of living cells.)

For the next assay, the system named is SK-BR-3. Kind of assay: Inhibition of proliferation of cells SK-BR-3 (CelltiterGlo, 72 h). How it is done: as §1, with “SK-BR-3” for “MDA-MB-468”, “5%” for “0%”, “1):” for “2):”
[formula] • Y: inhibition rate; X: log value of compound concentration-,
as §2

The mark [1] stands for this setting: Homo sapiens, MDA-MB-468, 72 h, read-out: IC50 (nM), antiproliferative activity on MDA-MB-468, MDA-MB-468 cells, 72 h, CTG.
Setting [2] is: Homo sapiens, NCI-N87, 72 h, read-out: IC50 (nM), antiproliferative activity on cells NCI-N87, NCI-N87 cells, 72 h, CTG.
Where [3] appears, read: Homo sapiens, SK-BR-3, 72 h, read-out: IC50 (nM), antiproliferative activity on SK-BR-3, SK-BR-3 cells, 72 h, CTG.
[4] abbreviates: MDA-MB-468 cells, 72 h, CTG, read-out: IC50 (nM), antiproliferative activity on MDA-MB-468.
The mark [5] stands for this setting: NCI-N87 cells, 72 h, CTG, read-out: IC50 (nM), antiproliferative activity on cells NCI-N87.

Read-outs that look alike come from different tables or passages of the source.

`CC[C@@]1(O)C(=O)OCc2c1cc1n(c2=O)Cc2c-1nc1cc(F)c(C3CC3)c3c1c2[C@@H](NC(=O)C[C@@H](O)C1CC1)CC3` [Compound 34-2, (R)-3-cyclopropyl-N-((1S,9S)-4-cyclopropyl-9-ethyl-5-fluoro-9-hydroxy-10,13-dioxo-2,3,9,10,13,15-hexahydro-1H,12H-benzo[d]pyrano[3′,4′:6,7]indolizino[1,2-b]quinolin-1-yl)-3-hydroxypropanamide]: the figures for the IC50 with MDA-MB-468 (setting [1]), with NCI-N87 (setting [2]) and with SK-BR-3 (setting [3]) were 4 nM, 6 nM and 4.8 nM, respectively.
The like results for `CC[C@@]1(O)C(=O)OCc2c1cc1n(c2=O)Cc2c-1nc1cc(F)c(C)c3c1c2[C@@H](NC(=O)[C@H]1C[C@@H](O)C1)CCC3` [Compound 10, (1S,3R)—N-((1S,10S)-10-ethyl-6-fluoro-10-hydroxy-5-methyl-11,14-dioxo-1,2,3,4,10,11,14,16-octahydro-13H-cyclohepta[de]pyrano[3′,4′:6,7]indolizino[1,2-b]quinolin-1-yl)-3-hydroxycyclobutane-1-carboxamide] were, in that order, 13 nM, 23 nM and 10 nM.
With “(1S,3S)—N-((1R,10S)-5-cyclopropyl-10-ethyl-6-fluoro-10-hydroxy-11,14-dioxo-1,2,3,4,10,11,14,16-octahydro-13H-cyclohepta[de]pyrano[3′,4′:6,7]indolizino[1,2-b]quinolin-1-yl)-3-hydroxybutane-1-carboxamide [Compound 20-1]”, the 50% inhibitory concentration (IC50) with MDA-MB-468 (setting [4]) worked out at 15.6 nM; in the assay with NCI-N87 (setting [5]) it was 26 nM; in the assay with SK-BR-3 (SK-BR-3 cells, 72 h, CTG, read-out: IC50 (nM), antiproliferative activity on SK-BR-3), 21 nM.
As for `CC[C@@]1(O)C(=O)OCc2c1cc1n(c2=O)Cc2c-1nc1cc(F)c(C3CC3)c3c1c2[C@@H](NC(=O)C[C@H](O)C1CC1)CC3` [Compound 34-1, (S)-3-cyclopropyl-N-((1S,9S)-4-cyclopropyl-9-ethyl-5-fluoro-9-hydroxy-10,13-dioxo-2,3,9,10,13,15-hexahydro-1H,12H-benzo[d]pyrano[3′,4′:6,7]indolizino[1,2-b]quinolin-1-yl)-3-hydroxypropanamide], the IC50 is 4 nM in the assay with MDA-MB-468 (setting [4]) and 6 nM with NCI-N87 (setting [5]).
The like results for `CC[C@@]1(O)C(=O)OCc2c1cc1n(c2=O)Cc2c-1nc1cc(F)c(C3CC3)c3c1c2[C@@H](NC(=O)[C@@H](O)C1CC1)CCC3` [Compound 33-2, (S)-2-cyclopropyl-N-((1S,10S)-5-cyclopropyl-10-ethyl-6-fluoro-10-hydroxy-11,14-dioxo-1,2,3,4,10,11,14,16-octahydro-13H-cyclohepta[3′,4′:6,7]indolizino[1,2-b]quinolin-1-yl)-2-hydroxyacetamide] were, in that order, 5 nM and 9 nM.
For `CC[C@@]1(O)C(=O)OCc2c1cc1n(c2=O)Cc2c-1nc1cc(F)c(C3CC3)c3c1c2C(NC(=O)[C@H]1C[C@@H](O)C1)CC3` (stereo partly drawn) [Compound 18-1, (1S,3S)—N-((1R,9S)-4-cyclopropyl-9-ethyl-5-fluoro-9-hydroxy-10,13-dioxo-2,3,9,10,13,15-hexahydro-1H,12H-benzo[d]pyrano[3′,4′:6,7]indolizino[1,2-b]quinolin-1-yl)-3-hydroxycyclobutane-1-carboxamide], the IC50 in the assay with NCI-N87 (setting [2]) is 11.2 nM; in the assay with SK-BR-3 (setting [3]), 13.8 nM.
As for `C=Cc1c(F)cc2nc3c(c4c2c1CC[C@@H]4NC(=O)[C@H]1C[C@@H](O)C1)Cn1c-3cc2c(c1=O)COC(=O)[C@]2(O)CC` [Compound 12, (1S,3R)—N-((1S,9S)-9-ethyl-5-fluoro-9-hydroxy-10,13-dioxo-4-ethenyl-2,3,9,10,13,15-hexahydro-1H,12H-benzo[d]pyrano[3′,4′:6,7]indolizino[1,2-b]quinolin-1-yl)-3-hydroxycyclobutane-1-carboxamide], the IC50 came to 9.3 nM in the assay with MDA-MB-468 (setting [1]), 20 nM with NCI-N87 (setting [2]) and 5.7 nM in the assay on SK-BR-3 (setting [3]).
As to `CC[C@@]1(O)C(=O)OCc2c1cc1n(c2=O)Cc2c-1nc1cc(F)c(C)c3c1c2[C@@H](NC(=O)[C@H](O)C1CC1)CCC3` [Compound 11-1, (R)-2-cyclopropyl-N-((1S,10S)-10-ethyl-6-fluoro-10-hydroxy-5-methyl-11,14-dioxo-1,2,3,4,10,11,14,16-octahydro-13H-cyclohepta[de]pyrano[3′,4′:6,7]indolizino[1,2-b]quinolin-1-yl)-2-hydroxyacetamide], the IC50 in the assay on MDA-MB-468 (Homo sapiens, MDA-MB-468 cells, 72 h, CTG, read-out: IC50 (nM), antiproliferative activity on MDA-MB-468) is 3.9 nM; in the assay on NCI-N87 (Homo sapiens, NCI-N87 cells, 72 h, CTG, read-out: IC50 (nM), antiproliferative activity on cells NCI-N87), 2.5 nM; in the assay with SK-BR-3 (Homo sapiens, SK-BR-3 cells, 72 h, CTG, read-out: IC50 (nM), antiproliferative activity on SK-BR-3), 2.2 nM.
Regarding `CC[C@@]1(O)C(=O)OCc2c1cc1n(c2=O)Cc2c-1nc1cc(F)c(C)c3c1c2[C@@H](NC(=O)[C@@H](C)[C@@H](C)O)CCC3` [Compound 39, (2S,3R)—N-((1S,10S)-10-ethyl-6-fluoro-10-hydroxy-5-methyl-11,14-dioxo-1,2,3,4,10,11,14,16-octahydro-13H-cyclohepta[3′,4′:6,7]indolizino[1,2-b]quinolin-1-yl)-3-hydroxy-2-methylbutanamide], the IC50 in the assay on MDA-MB-468 (setting [1]) is 15 nM; in the assay with NCI-N87 (setting [2]) it was 9.3 nM; in the assay with SK-BR-3 (setting [3]) it was 11 nM.
With `CC[C@@]1(O)C(=O)OCc2c1cc1n(c2=O)Cc2c-1nc1cc(F)c(C3CC3)c3c1c2[C@@H](NC(=O)[C@H](O)C1CC1)CCC3` [Compound 33-1, (R)-2-cyclopropyl-N-((1S,10S)-5-cyclopropyl-10-ethyl-6-fluoro-10-hydroxy-11,14-dioxo-1,2,3,4,10,11,14,16-octahydro-13H-cyclohepta[3′,4′:6,7]indolizino[1,2-b]quinolin-1-yl)-2-hydroxyacetamide], the IC50 in the assay on MDA-MB-468 (setting [4]) was determined as 6 nM; with NCI-N87 (setting [5]) it was 8 nM.
Take “(S)—N-((1S,10S)-10-ethyl-6-fluoro-10-hydroxy-5-methyl-11,14-dioxo-1,2,3,4,10,11,14,16-octahydro-13H-cyclohepta[3′,4′:6,7]indolizino[1,2-b]quinolin-1-yl)-3-hydroxy-4-methylpentanamide [Compound 37-1]”: in the assay on MDA-MB-468 (setting [4]), the IC50 worked out at 19 nM.

One may read the IC50 as the concentration needed to halve the response being measured.
